Columns and labels:
[1] = system: Nx rats (5/6 nephrectomy, hypertensive chronic kidney disease); assay: Nx rats treated with various HIF prolyl hydroxylase inhibitors, change in systolic blood pressure after four weeks, Example 4; type: in vivo, rat; details: 40 mg/kg oral
Procedure: (§1) A characteristic pathophysiology found in the uremic chronic kidney disease (CKD) population is hypertension. […] (Priyadarshi et al. (2002) Kidney Int 61:542-546; Coleman et al. (2006) Proc Natl Acad Sci USA 103:5965-5970.) The surgical procedure used to generate the rat remnant kidney was performed according to modification of the procedure described by Priyadarshi et al. (supra) or according to modification of the procedure described by Tanaka et al. (2005, Lab Invest 85:1292-1307). Separate studies used either male Sprague Dawley rats (280-300 g) or female Wistar rats (220-250 g).
Animals were divided into two groups of which one group (sham) underwent sham surgery and the other group (Nx) was subjected to 5/6 nephrectomy as follows. Animals were anesthetized under isoflurane, and a midline abdominal incision was made, followed by blunt dissection of the renal pedicles. Two or three branches of the left renal artery were ligated to infarct two thirds of the left kidney, while the right kidney underwent simultaneous nephrectomy. The infarct was verified by observing the change in kidney color. Animal body temperature was maintained constant, and warm (˜37° C.) saline (1.0 mL) was administered directly into the abdomen. Thereafter, the incision was sutured and the animal was allowed to recover and have free access to regular food and water. Animal body weight and mortality were closely monitored.
Starting 35 days after surgery, Nx and sham animals were randomly divided into groups and treated with either vehicle or compound A. Compound was dosed three times per week by oral gavage at 20 or 40 mg/kg compound per dose. Blood pressure (BP) was measured using a Kent XBP1000 system (Kent Scientific Corp., Torrington, Conn.) or a Muromachi tail-cuff blood pressure system (Muromachi Kikai Co., Ltd., Tokyo, Japan), both having volume/pressure recording technology and used according to the manufacturer's instruction. Rats were slightly warmed under a lamp and conditioned carefully before the measurement. BP was recorded as the mean value of 3 separate measurements obtained at each session and reported herein as mean±SEM. Results are compared using 1-way analysis of variance (ANOVA) and Student-Newman-Keuls method (SigmaStat, SPSS Science, Chicago, Ill.).
In another series of experiments, rats subjected to 5/6 nephrectomy were treated 35 days after surgery according to the dosing schedule described in Example 3 above with a HIF prolyl hydroxylase inhibitor. Individual compound selected from the group consisting of compounds A and C-K were administered by oral gavage at 8, 20, 30, or 40 mg/kg (see Table 1 and Table 2). Systolic blood pressure was recorded at day 35 (baseline) and again immediately following the last dose of compound. Table 1 and Table 2 show changes in systolic blood pressure following four weeks of oral administration of various compounds of the present invention to Nx rats.

[2] = system: Nx rats (5/6 nephrectomy, hypertensive chronic kidney disease); assay: Rat remnant kidney model (5/6 nephrectomy) of CKD, tail-cuff systolic blood pressure, Example 3; type: in vivo; details: mean±SEM, p<0.05 vs vehicle-treated Nx rats (195.7±24.4)
Procedure: as §1
Animals were divided into two groups of which one group (sham) underwent sham surgery and the other group (Nx) was subjected to 5/6 nephrectomy as follows. […] Animal body weight and mortality were closely monitored.
Starting 35 days after surgery, Nx and sham animals were randomly divided into groups and treated with either vehicle or compound A. Compound was dosed three times per week by oral gavage at 20 or 40 mg/kg compound per dose. Blood pressure (BP) was measured using a Kent XBP1000 system (Kent Scientific Corp., Torrington, Conn.) or a Muromachi tail-cuff blood pressure system (Muromachi Kikai Co., Ltd., Tokyo, Japan), both having volume/pressure recording technology and used according to the manufacturer's instruction. […]

SMILES: Cc1nc(C(=O)NCC(=O)O)c(O)c2ccc(Oc3ccccc3)cc12 [A, [(4-hydroxy-1-methyl-7-phenoxy-isoquinoline-3-carbonyl)-amino]-acetic acid]
- SBP (mmHg) Change from Baseline [1]: −31.10 mmHg
- SBP (mmHg) Change from Vehicle [1]: −40.31 mmHg
- systolic blood pressure (SBP) ([2]; 20 mg/kg oral gavage three times per week): 164.7±26.7 mmHg
- systolic blood pressure (SBP) ([2]; 40 mg/kg oral gavage three times per week): 155.4±42.9 mmHg

Source: patent US20140163061A1, “Methods For Reducing Blood Pressure” (FibroGen, Inc., priority 2008, published 2014)
